Key:
Experiment in all cases: relative viability (nuclei count vs DMSO), 5 days (fraction); higher = more cells survive
Carfilzomib + Pictilisib = compound: CC(C)C[C@H](NC(=O)[C@H](CCc1ccccc1)NC(=O)CN1CCOCC1)C(=O)N[C@@H](Cc1ccccc1)C(=O)N[C@@H](CC(C)C)C(=O)[C@@]1(C)CO1 [Carfilzomib] + CS(=O)(=O)N1CCN(Cc2cc3nc(-c4cccc5[nH]ncc45)nc(N4CCOCC4)c3s2)CC1 [Pictilisib] (partner 1 µM)
Method in brief: (§1)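 The day after seeding in 1536-well plates, lung cancer cell lines were treated by pin tool with a single drug, or with a fixed anchor-drug dose together with five library-drug doses (not always all listed) in √10 steps. After 5 days, a combined fix-and-stain solution (final 0.05% Triton X-100, 1% formaldehyde, 1 ug/ml Hoechst) was added. Nuclei counted on 4× images gave relative viability as treated counts over vehicle counts, reported as the median of duplicate plates.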

Carfilzomib + Dasatinib = compound: CC(C)C[C@H](NC(=O)[C@H](CCc1ccccc1)NC(=O)CN1CCOCC1)C(=O)N[C@@H](Cc1ccccc1)C(=O)N[C@@H](CC(C)C)C(=O)[C@@]1(C)CO1 [Carfilzomib] + Cc1nc(Nc2ncc(C(=O)Nc3c(C)cccc3Cl)s2)cc(N2CCN(CCO)CC2)n1 [Dasatinib] (partner 0.075 µM)
Method in brief: as §1

Carfilzomib + Vorinostat = compound: CC(C)C[C@H](NC(=O)[C@H](CCc1ccccc1)NC(=O)CN1CCOCC1)C(=O)N[C@@H](Cc1ccccc1)C(=O)N[C@@H](CC(C)C)C(=O)[C@@]1(C)CO1 [Carfilzomib] + O=C(CCCCCCC(=O)Nc1ccccc1)NO [Vorinostat] (partner 1 µM)
Method in brief: as §1

Crizotinib + Vorinostat = compound: C[C@@H](Oc1cc(-c2cnn(C3CCNCC3)c2)cnc1N)c1c(Cl)ccc(F)c1Cl [Crizotinib] + O=C(CCCCCCC(=O)Nc1ccccc1)NO [Vorinostat] (partner 1 µM)
Method in brief: as §1

Olaparib + Linsitinib = compound: O=C(c1cc(Cc2n[nH]c(=O)c3ccccc23)ccc1F)N1CCN(C(=O)C2CC2)CC1 [Olaparib] + C[C@]1(O)C[C@@H](c2nc(-c3ccc4ccc(-c5ccccc5)nc4c3)c3c(N)nccn32)C1 [Linsitinib] (partner 1 µM)
Method in brief: as §1

NCI-H1793 was tested, and the relative viability (Carfilzomib + Pictilisib; first compound 0.003162 µM) was 0.328, the relative viability (Carfilzomib + Pictilisib; first compound 0.01 µM) was 0.293 and the relative viability (Carfilzomib + Pictilisib; first compound 0.03162 µM) was 0.335. The relative viability (Carfilzomib + Pictilisib; first compound 0.1 µM) was 0.248, the relative viability (Carfilzomib + Dasatinib; first compound 0.003162 µM) was 0.507 and the relative viability (Carfilzomib + Dasatinib; first compound 0.01 µM) was 0.353. For the same cell line, the relative viability (Carfilzomib + Dasatinib; first compound 0.03162 µM) was 0.376, the relative viability (Carfilzomib + Dasatinib; first compound 0.1 µM) was 0.389 and the relative viability (Carfilzomib + Vorinostat; first compound 0.001 µM) was 0.605. For the same cell line, the relative viability (Carfilzomib + Vorinostat; first compound 0.003162 µM) was 1, the relative viability (Carfilzomib + Vorinostat; first compound 0.01 µM) was 0.7 and the relative viability (Carfilzomib + Vorinostat; first compound 0.03162 µM) was 0.396. The relative viability (Carfilzomib + Vorinostat; first compound 0.1 µM) was 0.107, the relative viability (Crizotinib + Vorinostat; first compound 0.03162 µM) was 0.765 and the relative viability (Crizotinib + Vorinostat; first compound 0.1 µM) was 0.748. The relative viability (Crizotinib + Vorinostat; first compound 1 µM) was 0.896, the relative viability (Olaparib + Linsitinib; first compound 0.08 µM) was 0.862 and the relative viability (Olaparib + Linsitinib; first compound 0.253 µM) was 0.738. It also gave a relative viability (Olaparib + Linsitinib; first compound 2.53 µM) of 0.942 and a relative viability (Olaparib + Linsitinib; first compound 8 µM) of 0.655.

From the supplement of paper PMC10307832
